Each structure is given as a SMILES string. Like-named read-outs stand apart in the source and are kept apart here.

This assay has as its system COVID-19 (SARS-CoV-2). Particulars: lung damage by computer tomography.

Regarding `NC(=O)c1nc(F)cnc1O` [FPV, 6-fluoro-3-hydroxy-2-pyrazinecarboxamide], the “CT on Day 14: Improvement, percent of patients” value is recorded as “(72.7%)”; the “CT on Day 14: No change, percent of patients” value was “(9.1%)”; the “CT on Day 14: Worsening, percent of patients” value is given as “(18.2%)”. Under “count of patients”, the “CT on Day 14: Improvement, number of patients” value stood at 8; the “CT on Day 14: No change, number of patients” value was determined as 1; the “CT on Day 14: Worsening, number of patients” value is 2. Besides, under “listed as FVP”, the “CT on Day 14: Improvement, percent of patients” value is listed as 72.7%; the “CT on Day 14: No change, percent of patients” value turned out to be 9.1%; the “CT on Day 14: Worsening, percent of patients” value was 18.2%.
